The values that follow come from US7271171B2, “Adenosine A3 receptor modulators” (King Pharmaceuticals Research and Development, Inc., priority 1998, dated 2007).

As a reminder, the pKi is the negative decadic logarithm of the Ki, by convention in mol/L.

Structures are written as SMILES. pKi: −log10 of the molar value. Where a name gives a salt, the structure may show the parent alone.

Assay [1] deals with T1, human recombinant A1 adenosine receptor (Homo sapiens, UniProt P30542).
T1 construct: expressed in transfected cells; host or cells: CHO
T1 sequence (P30542 1-326): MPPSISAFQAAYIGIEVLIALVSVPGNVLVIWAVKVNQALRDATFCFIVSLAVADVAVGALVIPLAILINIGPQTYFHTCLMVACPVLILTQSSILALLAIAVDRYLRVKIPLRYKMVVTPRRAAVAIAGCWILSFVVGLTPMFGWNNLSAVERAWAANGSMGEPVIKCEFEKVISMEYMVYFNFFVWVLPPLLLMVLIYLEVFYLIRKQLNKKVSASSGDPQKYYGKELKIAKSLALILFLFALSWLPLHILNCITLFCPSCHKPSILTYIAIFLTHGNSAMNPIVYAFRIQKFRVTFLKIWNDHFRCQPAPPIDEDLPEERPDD
In words: Human cloned A1 receptor binding, [3H]-DPCPX, CHO cells. The conditions noted are these: read-out: hA1 (Ki). How it is done: (§1) The expression of the human A1, A2A, A2B and A3 receptors in CHO cells has been previously described (Klotz et al., 1998). The cells are grown adherently and maintained in Dulbecco's modified Eagle's medium with nutrient mixture F12 without nucleosides at 37 ° C. in 5% CO2/95% air. Cells are split two or three times weekly and then the culture medium is removed for membrane preparations. The cells are washed with phosphate-buffered saline and scraped off flasks in ice cold hypotonic buffer (5 mM Tris HCl, 2 mM EDTA, pH 7.4). The cell suspension is homogenized with Polytron and the homogenate is centrifuged for 30 min. at 48,000 g. The membrane pellet is re-suspended in 50 mM Tris HCl buffer at pH 7.4 for A1 adenosine receptors, in 50 mM Tris HCl, 10 mM MgCl2 at pH 7.4 for A2A adenosine receptors, in 50 mM Tris HCl, 10 mM MgCl2, 1 mM EDTA at pH 7.4 for A3 adenosine receptors and are utilized for binding and adenylate cyclase assays.
Binding of [^3H]-DPCPX to CHO cells transfected with the human recombinant A1 adenosine receptor is performed according to the method previously described by Klotz and coworkers (Klotz, K. N.; Cristalli, G.; Grifantini, M.; Vittori, S.; Lohse, M. J., “Photoaffinity labeling of A1 adenosine receptors,” J. Biol. Chem., 260, 14659-14664, 1985).
(§2) Displacement experiments are performed for 120 min. at 25° C. in 0.20 mL of buffer containing 1 nM [^3H]-DPCPX, 20 μL of diluted membranes (50 μg of protein/assay) and at least 6-8 different concentrations of examined compounds. Non-specific binding is determined in the presence of 10 μM of CHA and this is always 10% of the total binding. Binding of [^3H]-SCH58261 to CHO cells transfected with the human recombinant A2A adenosine receptors (50 μg of protein/assay) was performed according to Varani et al. (Varani, K; Cacciari, B.; Baraldi, P. G.; Dionisotti, S.; Ongini, E.; Borea, P. A., “Binding affinity of adenosine receptor agonists and antagonists at human cloned […] adenosine receptors,” Life Sci., 63, 81-87, 1998). In competition studies, at least 6-8 different concentrations of compounds are used and non-specific binding is determined in the presence of 50 μM NECA for an incubation time of 60 min. at 25° C.

The target in assay [2] is T2, human recombinant A2A adenosine receptors (Homo sapiens, UniProt P29274).
T2 construct: expressed in transfected cells; host or cells: CHO
Nature of the assay: Human cloned A2A receptor binding, [3H]-SCH58261, CHO cells. The conditions noted are these: read-out: hA2A (Ki). The protocol: as §1, §2

The target of assay [3] is T3, human recombinant A2B adenosine receptors (Homo sapiens, UniProt P29275).
T3 construct: host or cells: HEK-293
T3 sequence (P29275 1-332): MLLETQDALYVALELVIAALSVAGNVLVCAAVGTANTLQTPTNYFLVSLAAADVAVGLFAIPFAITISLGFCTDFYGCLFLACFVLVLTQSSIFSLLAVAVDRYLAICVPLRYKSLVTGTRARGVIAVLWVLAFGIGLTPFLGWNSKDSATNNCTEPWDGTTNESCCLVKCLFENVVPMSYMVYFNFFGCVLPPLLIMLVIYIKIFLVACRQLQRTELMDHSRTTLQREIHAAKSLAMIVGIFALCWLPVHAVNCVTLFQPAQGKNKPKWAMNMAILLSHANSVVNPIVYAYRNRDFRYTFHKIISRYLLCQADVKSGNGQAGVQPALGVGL
Nature of the assay: Human cloned A2B receptor binding, [3H]-DPCPX, HEK-293 cells. The following applies: read-out: hA2B (Ki). How it is done:
Binding of [^3H]-DPCPX to HEK-293 cells (Receptor Biology, Inc., Beltsville, Md.) transfected with the human recombinant A2B adenosine receptors is performed essentially to the method described by Varani and coworkers (Mol. Pharmacol.). In particular, assays are carried out for 60 min. at 25° C. in 0.1 mL of 50 mM Tris HCl Buffer, 10 mM MgCl2, 1 mM EDTA, 0.1 mM benzamidine pH 7.4, 2 IU/ml adenosine deaminase containing 40 nM [^3H]-DPCPX, diluted membranes (20 µg of protein/assay) and at least 6-8 different concentration of tested compounds. Non-specific binding is determined in the presence of 100 μM of NECA and is always 30% of the total binding.

For a further assay, the target named is T4, adenosine A3 receptor (Homo sapiens, UniProt P0DMS8).
T4 construct: expressed in transfected cells; host or cells: CHO
T4 sequence (P0DMS8 1-318): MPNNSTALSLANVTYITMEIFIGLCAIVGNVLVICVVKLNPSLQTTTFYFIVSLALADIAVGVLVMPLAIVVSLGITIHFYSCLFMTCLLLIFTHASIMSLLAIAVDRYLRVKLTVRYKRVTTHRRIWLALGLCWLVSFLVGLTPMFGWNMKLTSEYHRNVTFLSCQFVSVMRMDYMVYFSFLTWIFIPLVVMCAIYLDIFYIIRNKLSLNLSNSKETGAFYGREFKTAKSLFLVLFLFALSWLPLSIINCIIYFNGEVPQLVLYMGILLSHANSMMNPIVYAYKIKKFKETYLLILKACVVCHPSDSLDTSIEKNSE
Nature of the assay: Adenylate cyclase assay: block of agonist-induced inhibition of cAMP production. It is filed as biochemical. The conditions noted are these: FIG. 2, comparison in words. The protocol: as §1
Membrane preparation is suspended in 0.5 mL of incubation mixture (50 mM Tris HCl, MgCl2 10 mM, EDTA, 1 mM, pH 7.4) containing GTP 5 µM, 0.5 mM 4-(3-buthoxy-4-methoxybenzyl)-2-imidazolidinone (Ro 20-1274) as phosphodiesterase inhibitor, 2.0 IU/mL adenosine deaminase and pre-incubated for 10 min. in a shaking bath at 37° C. […]

The target in assay [4] is T5, human recombinant A3 adenosine receptor (Homo sapiens, UniProt P0DMS8).
T5 sequence (P0DMS8 1-318): T4 sequence (P0DMS8 1-318)
Nature of the assay: Human cloned A3 receptor binding, [3H] MRE3008-F20, CHO cells. Also noted: expressed in transfected cells; host or cells: CHO. The conditions noted are these: for pKi: CHO cells, [3H] MRE3008-F20, read-out: hA3 (Ki); for hA1/hA3 / hA2A/hA3 / hA2B/hA3: selectivity ratio of Ki values.
Description: The cells are grown adherently and maintained in Dulbecco's modified Eagle's medium with nutrient mixture F12 without nucleosides at 37 ° […] Cells are split two or three times weekly and then the culture medium is removed for membrane preparations. The cells are washed with phosphate-buffered saline and scraped off flasks in ice cold hypotonic buffer (5 mM Tris HCl, 2 mM EDTA, pH 7.4). The cell suspension is homogenized with Polytron and the homogenate is centrifuged for 30 min. at 48,000 g. The membrane pellet is re-suspended in 50 mM Tris HCl buffer at pH 7.4 for A1 adenosine receptors, in 50 mM Tris HCl, 10 mM MgCl2 at pH 7.4 for A2A adenosine receptors, in 50 mM Tris HCl, 10 mM MgCl2, 1 mM EDTA at pH 7.4 for A3 adenosine receptors and are utilized for binding and adenylate cyclase assays.

The target of assay [5] is T6, adenosine A3 receptors in Jurkat cell membranes (Homo sapiens, UniProt P0DMS8).
T6 construct: endogenous in cells; host or cells: Jurkat (human T-cell leukaemia)
T6 sequence (P0DMS8 1-318): T4 sequence (P0DMS8 1-318)
In words: Saturation binding of radioligand of Compound 108, Jurkat cell membranes.

The target in assay [6] is T7, adenosine A3 receptors in HL60 membranes (Homo sapiens, UniProt P0DMS8).
T7 construct: endogenous in cells; host or cells: HL60 (promyelocytic human leukaemia)
T7 sequence (P0DMS8 1-318): T4 sequence (P0DMS8 1-318)
In words: Saturation binding of radioligand of Compound 108, HL60 membranes.

T2 sequence (P29274 whole entry): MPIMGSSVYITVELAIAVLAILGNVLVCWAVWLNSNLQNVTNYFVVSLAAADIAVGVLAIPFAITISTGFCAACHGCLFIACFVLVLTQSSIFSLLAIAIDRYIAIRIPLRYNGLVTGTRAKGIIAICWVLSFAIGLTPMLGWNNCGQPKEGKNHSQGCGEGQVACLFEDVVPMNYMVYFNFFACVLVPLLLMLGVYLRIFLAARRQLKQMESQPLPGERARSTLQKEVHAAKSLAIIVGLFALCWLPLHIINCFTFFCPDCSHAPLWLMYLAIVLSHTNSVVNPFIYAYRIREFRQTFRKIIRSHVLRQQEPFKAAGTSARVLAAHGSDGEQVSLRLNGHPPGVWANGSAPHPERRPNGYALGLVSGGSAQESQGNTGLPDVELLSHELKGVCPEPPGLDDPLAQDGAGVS

For `Cn1cc2c(nc(NC(=O)Nc3ccncc3)n3nc(-c4ccco4)nc23)n1` [Compound 106, N-[2-(2-furyl)-8-methyl-8H-pyrazolo[4,3-e][1,2,4]triazolo[1,5-c]pyrimidin-5-yl]-N′-pyridin-4-yl urea], the figures for the pKi in assay [1], in assay [2] and in assay [3] were 6.60, 7.22 and 6.70, respectively. Further, the “potency of adenosine A3 antagonism (block of C1-IB-MECA induced inhibition of cAMP production)” value on adenosine A3 receptor is “comparable”.
For the compound `CCCn1cc2c(nc(NC(=O)Nc3ccc(OC)cc3)n3nc(-c4ccco4)nc23)n1` [Compound 108, 5-[[(4-methoxyphenyl)amino]carbonyl]amino-8-propyl-2-(2-furyl)-pyrazolo[4, 3]-e-1 ,2,4-triazolo[1,5-c]pyrimidine], the pKi is 5.92 in assay [1] and 6.85 in assay [2].
Consider `CCN(CC)c1ccc(NC(=O)Nc2nc3nn(C)cc3c3nc(-c4ccco4)nn23)cc1` [Compound 102, N-[8-methyl-2-(2-furyl)-8H-pyrazolo[4,3-e][1,2,4]triazolo[1,5-c]pyrimidin-5-yl]-N′-[4-(diethylamino)phenyl]urea hydrochloride], for which the negative-log Ki (pKi) in assay [1] is 6.17; in assay [2], 6.23; in assay [3], 6.56.
In the case of `Cn1cc2c(nc(NC(=O)Nc3ccc(S(=O)(=O)N4CCOCC4)cc3)n3nc(-c4ccco4)nc23)n1` [Compound 104], in assay [1], the negative-log Ki (pKi) was 6.14. In assay [2], the pKi was 5.85. The pKi in assay [3] was < 5.00. In addition, in assay [4], the negative logarithm of the Ki (pKi) was 8.61, the hA1/hA3 was 294, the hA2A/hA3 is listed as 566 and the hA2B/hA3 is given as 4050.
With `CCN(CC)c1ccc(NC(=O)Nc2nc3nn(C)cc3c3nc(-c4ccco4)nn23)cc1` [Compound 101, N-[4-(diethylamino)phenyl]-N′-[2-(2-furyl)-8-methyl-8H -pyrazolo[4,3-e][1,2,4]triazolo[1,5-c]pyrimidin-5-yl]urea], the pKi in assay [1] was 6.24; in assay [2], 6.28; in assay [3], 6.46.
As to `[3H]CC([3H])Cn1cc2c(nc(NC(=O)Nc3ccc(OC)cc3)n3nc(-c4ccco4)nc23)n1` (centres unmarked) [radioligand of Compound 108, 5-[[(4-methoxyphenyl)amino]carbonyl]amino-8-(1,2-ditritiopropyl)-2-(2-furyl)-pyrazolo[4,3-e]1,2,4-triazolo[1,5-c]pyrimidine], the Bmax value in assay [5] (Jurkat cell membranes, FIG. 4, n=3) was 1.30±0.03 pmol/mg protein. In addition, the “A3 receptor density detected” value in assay [5] (Jurkat cells) is “approximately 1300 fmol/mg protein”. Besides, the “Bmax value / A3 receptor density detected” value is 626±42 fmol/mg protein in assay [6] (FIG. 5) and ~650 fmol/mg protein in assay [6] (FIG. 5, listed as tritiated analogue of Compound 108).
As for `CN(C)c1ccc(NC(=O)Nc2nc3nn(C)cc3c3nc(-c4ccco4)nn23)cc1` [Compound 103, N-[8-methyl-2-(2-furyl)-8H-pyrazolo[4,3-e][1,2,4]triazolo[1,5-c]pyrimidin-5-yl]-N′-[4-(dimethylamino)phenyl]urea hydrochloride], the values for the negative-log Ki (pKi) in assay [1], in assay [2] and in assay [3] were < 5.00, < 5.00 and 6.22, respectively.
`CCn1cc2c(nc(NC(=O)Nc3ccc(OC)cc3)n3nc(-c4ccco4)nc23)n1` [Compound 109]: the pKi in assay [1] is 5.99; in assay [2], 5.98; in assay [4] it was 9.55. Besides, the hA1/hA3 in assay [4] is reported as 3660. Besides, in assay [4], the hA2A/hA3 is given as 3730.
On to `CN1CCN(S(=O)(=O)c2ccc(NC(=O)Nc3nc4nn(C)cc4c4nc(-c5ccco5)nn34)cc2)CC1` [Compound 105, N-[2-(2-furyl)-8-methyl-8H-pyrazolo[4,3-e][1,2,4]triazolo[1,5-c]pyrimidin-5-yl]-N′{-4-[(4-methylpiperazin-1-yl)sulfonyl]-phenyl}urea], for which the pKi was < 6.00 in assay [1], < 6.00 in assay [2], < 6.00 in assay [3] and 7.54 in assay [4]. Further, the hA1/hA3 in assay [4] turned out to be 34.5. Also, the hA2A/hA3 in assay [4] is listed as 34.5. For the same compound, the hA2B/hA3 in assay [4] is reported as 34.5.
